Results: US20210188817A1, “OPHTHALMIC COMPOSITIONS AND METHODS FOR THE TREATMENT OF EYE DISORDERS AND SKIN DISEASES” (Cellix Bio Private Limited, priority 2018, published 2021)

How the values were obtained:
[1] = Method: SINGLE DOSE OCULAR PHARMACOKINETIC STUDY OF CLX-162 FORMULATION IN MALE NEW ZEALAND WHITE RABBITS: The purpose of this study was to determine the ocular pharmacokinetics of CLX-162, Brimonidine R-(+)-lipoate when administered to male New Zealand white rabbits by topical ocular route.
Aqueous humor samples were collected at pre-determined time points (0.25, 0.5, 1, 2, 4, 8 and 12 h from both eyes) and stored at −70° C. until analysis. Brimonidine was quantified in aqueous humor samples of New Zealand White rabbits, using a specific sensitive LC-MS/MS fit for purpose analytical method.
Brimonidine Pharmacokinetic parameters in aqueous humor of New Zealand white rabbits: […]

P. acnes = conditions: 72 hours co-culture; compared with S. aureus and S. epidermidis
Excerpt: (§1) ANTI-MICROBIAL PROPERTIES OF CLX-SYN-G162B-C02 AND BRIMONIDINE MALEATE: To compare dose-response effects of CLX-SYN-G162B-C02 [brimonidine eicosapentaenoate salt], compound of present invention and brimonidine maleate [referred as brimonidine], comparative example on the growth of bacteria that are present in the skin flora, P. acnes, Staphylococcus aureus (S. aureus), and Staphylococcus epidermidis (S. epidermidis) were co-cultured with either agent at various concentrations for 72, 24, and 48 hours, respectively.
(§2) Bacterial growth was evaluated by measuring absorbance at 600 nm. The length of cultivation period was determined based on the growth speed of the bacteria. Both, CLX-SYN-G162B-C02 and brimonidine were tested at concentrations of twofold serial dilutions from 0.24 to 500 μg ml-1.

[2] = test system: P. acnes, Staphylococcus aureus (S. aureus), and Staphylococcus epidermidis (S. epidermidis); conditions: twofold serial dilutions 0.24 to 500 μg ml-1, 72, 24, 48 hours for P. acnes, OD600
Excerpt: as §1, §2

[3] = brimonidine in aqueous humor, 50 μL topical ocular, each eye, New Zealand white rabbits

| AUC profile ([1]; aqueous humor, ocular administration, comparator not stated) | AUCinf [1, 3] | AUClast [1, 3] | Cmax [1, 3] | MRTlast [1, 3] | T1/2 [1, 3] | Tmax [1, 3] | Time to maximal aqueous humor concentration ([1]; topical ocular) | Brimonidine levels detectable in the aqueous humor, time post dose ([1]; topical ocular, sampling 0.25-12 h) | Molecule | half maximal effective concentration on P. acnes growth (P. acnes) | minimal inhibitory concentration (MIC) [2] |
| --- | --- | --- | --- | --- | --- | --- | --- | --- | --- | --- | --- |
| better AUC profile | 1953 ng·h/mL | 1875 ng·h/mL | 1073 ng/mL | 1.26 h | 49.2 min | 30 min | ≤ 0.5 h | up to 4 h | Brc1c(NC2=NCCN2)ccc2nccnc12.O=C(O)CCCC[C@@H]1CCSS1 [CLX-162, Brimonidine R-(+)-lipoate] |  |  |
|  |  |  |  |  |  |  |  |  | Brimonidine Eicosapentaenoate [CLX-SYN-G162B-C02] | lowest among the bacteria tested | had shown to prevent bacterial growth |
|  |  |  |  |  |  |  |  |  | brimonidine maleate [reference compound] |  | no MIC |
